± gives the standard deviation of the averaged measurements.
What was measured:
[1] = tested on: Homo sapiens (human subject panel, olfactory perception); test: perceived odor familiarity rating (rating 0-100); higher = more familiar
Experimental: (§1)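 Human olfactory psychophysics. 55 healthy subjects (after excluding 6 low performers) sniffed 1 mL of each odorant diluted in paraffin oil (vials, two dilutions per molecule, 20 molecules presented twice). Each subject rated intensity, pleasantness and familiarity on a 0-100 slider, starting at 50 and required to move. Ratings were given only when the subject reported detecting a smell; per-subject ratings are averaged over subjects.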

[2] = tested on: Homo sapiens (human subject panel, olfactory perception); test: perceived odor intensity rating (rating 0-100); higher = stronger perceived smell
Experimental: as §1

[3] = tested on: Homo sapiens (human subject panel, olfactory perception); test: perceived odor pleasantness rating (rating 0-100); higher = more pleasant
Experimental: as §1

[4] = odor dilution in paraffin oil: 1/1,000
[5] = odor dilution in paraffin oil: 1/100,000
[6] = odor dilution in paraffin oil: 1/10,000,000
[7] = odor dilution in paraffin oil: 1/10

SMILES | perceived odor familiarity rating [1, 4] | perceived odor familiarity rating [1, 5] | perceived odor intensity rating [2, 4] | perceived odor intensity rating [2, 5] | perceived odor pleasantness rating [3, 4] | perceived odor pleasantness rating [3, 5] | perceived odor familiarity rating [1, 6] | perceived odor intensity rating [2, 6] | perceived odor pleasantness rating [3, 6] | perceived odor familiarity rating [1, 7] | perceived odor intensity rating [2, 7] | perceived odor pleasantness rating [3, 7]
CCC(=O)OCCCc1ccccc1 [3-Phenylpropyl propionate] | 49.1 ± 28 | 38.6 ± 32 | 62.9 ± 26 | 28.4 ± 34 | 36.4 ± 28 | 49.8 ± 27 | – | – | – | – | – | –
CCCC(O)CC (stereo not given) [3-hexanol (replicate)] | 50.5 ± 34 | 34.2 ± 26 | 68.9 ± 28 | 30.2 ± 30 | 32.3 ± 22 | 46.6 ± 22 | – | – | – | – | – | –
CCCC(O)CC (stereo not given) [3-hexanol] | 43.1 ± 31 | 28.1 ± 23 | 71.3 ± 28 | 29.7 ± 30 | 35.1 ± 26 | 49.1 ± 24 | – | – | – | – | – | –
CCCCCC(=O)CC [3-octanone] | 56.4 ± 28 | 35.9 ± 30 | 69.7 ± 25 | 26 ± 27 | 50.9 ± 31 | 53.3 ± 23 | – | – | – | – | – | –
CCC(O)CC [3-pentanol] | 58.3 ± 32 | 44 ± 33 | 76.4 ± 18 | 39.4 ± 35 | 34 ± 26 | 33.4 ± 25 | – | – | – | – | – | –
O=C1CCSC1 [4,5-Dihydro-3(2H)-thiophenone] | 52.9 ± 34 | 30.8 ± 34 | 85.8 ± 20 | 37 ± 34 | 21.4 ± 26 | 33.2 ± 22 | – | – | – | – | – | –
CC1=C(O)C(=O)OC1C (stereo not given) [4,5-Dimethyl-3-hydroxy-2,5-dihydrofuran-2-one] | – | 64.4 ± 25 | – | 72.6 ± 21 | – | 59.5 ± 29 | 42.7 ± 32 | 41.8 ± 30 | 46.1 ± 26 | – | – | –
CC(=O)CCc1ccc(O)cc1 [4-(4-Hydroxyphenyl)-2-butanone] | 46.1 ± 28 | – | 46.3 ± 30 | – | 50.6 ± 24 | – | – | – | – | 40.1 ± 29 | 50.2 ± 29 | 49.6 ± 27
C=CCc1ccc(OC)cc1 [4-Allylanisole] | 64.2 ± 28 | 28.7 ± 27 | 60.8 ± 26 | 22.3 ± 29 | 60.8 ± 24 | 54.5 ± 24 | – | – | – | – | – | –
CCOc1ccc(C=O)cc1 [4-Ethoxybenzaldehyde] | 58.5 ± 30 | 47.2 ± 31 | 65.2 ± 25 | 34.2 ± 28 | 67.4 ± 26 | 66.4 ± 24 | – | – | – | – | – | –
CCc1ccc(O)c(OC)c1 [4-Ethylguaiacol] | 57.6 ± 32 | 52.1 ± 32 | 78 ± 17 | 69.4 ± 23 | 41.7 ± 27 | 43.8 ± 24 | – | – | – | – | – | –
CCCC(=O)CCC [4-Heptanone] | 55.4 ± 27 | 41.1 ± 29 | 69.3 ± 24 | 34.7 ± 31 | 49.3 ± 23 | 51.6 ± 24 | – | – | – | – | – | –
O=Cc1ccc(O)cc1 [4-Hydroxybenzaldehyde] | 39.1 ± 31 | – | 37.6 ± 27 | – | 51.8 ± 23 | – | – | – | – | 39.5 ± 25 | 51.6 ± 29 | 49.2 ± 24
O=C1CCCO1 [4-Hydroxybutanoic acid lactone] | 44.6 ± 31 | 28.2 ± 30 | 47 ± 34 | 19.9 ± 24 | 28.9 ± 19 | 46.1 ± 25 | – | – | – | – | – | –
CC(C)c1ccc(CO)cc1 [4-Isopropylbenzyl alcohol] | 33.1 ± 29 | – | 31.9 ± 32 | – | 40.4 ± 25 | – | – | – | – | 46.4 ± 31 | 71.6 ± 22 | 31.8 ± 23
CC(=O)OCCc1scnc1C [4-Methyl-5-thiazoleethanol acetate] | 53.8 ± 31 | 45.9 ± 32 | 66.3 ± 26 | 38 ± 30 | 34.4 ± 25 | 41.9 ± 24 | – | – | – | – | – | –
Cc1ncsc1CCO [4-Methyl-5-thiazoleethanol] | 56.7 ± 32 | 39.9 ± 28 | 73.1 ± 20 | 48.6 ± 29 | 29.6 ± 25 | 37.8 ± 24 | – | – | – | – | – | –
C=Cc1scnc1C [4-Methyl-5-vinylthiazole] | 41.4 ± 34 | 40.3 ± 33 | 80.5 ± 21 | 43.5 ± 32 | 21.3 ± 22 | 38.6 ± 27 | – | – | – | – | – | –

SMILES | perceived odor familiarity rating [1, 4] | perceived odor familiarity rating [1, 5] | perceived odor intensity rating [2, 4] | perceived odor intensity rating [2, 5] | perceived odor pleasantness rating [3, 4] | perceived odor pleasantness rating [3, 5] | perceived odor familiarity rating [1, 6] | perceived odor intensity rating [2, 6] | perceived odor pleasantness rating [3, 6] | perceived odor familiarity rating [1, 7] | perceived odor intensity rating [2, 7] | perceived odor pleasantness rating [3, 7]
COc1ccc(C)cc1 [4-Methylanisole] | 48.2 ± 31 | 50.2 ± 28 | 70.5 ± 21 | 44.8 ± 31 | 47.7 ± 28 | 56.3 ± 28 | – | – | – | – | – | –
CC1CCC(=O)CC1 [4-Methylcyclohexanone] | 46 ± 32 | 49.2 ± 28 | 60.9 ± 31 | 32.5 ± 28 | 36.9 ± 25 | 64.6 ± 20 | – | – | – | – | – | –
Cc1ccnc2ccccc12 [4-Methylquinoline] | – | 33.1 ± 30 | – | 38.7 ± 30 | – | 40.5 ± 21 | 34.8 ± 28 | 20.8 ± 22 | 49.5 ± 24 | – | – | –
Cc1cscn1 [4-Methylthiazole] | 46.8 ± 31 | 44.4 ± 29 | 60.7 ± 30 | 57.3 ± 28 | 29.4 ± 27 | 32.7 ± 20 | – | – | – | – | – | –
CC(C)CCC(=O)O [4-Methylvaleric acid] | – | 41.8 ± 30 | – | 58.6 ± 30 | – | 20.8 ± 22 | 32.5 ± 25 | 30.9 ± 30 | 43.3 ± 20 | – | – | –
CC1=CC(=O)CC(C)(C)C1=O [4-Oxoisophorone] | 49.7 ± 28 | 44.2 ± 28 | 49.2 ± 26 | 34 ± 28 | 47.7 ± 25 | 55 ± 21 | – | – | – | – | – | –
C=CCCC(=O)O [4-Pentenoic acid] | 48.1 ± 34 | 44.9 ± 32 | 80.5 ± 22 | 65 ± 29 | 14.1 ± 18 | 15.7 ± 18 | – | – | – | – | – | –
C=CCc1ccc(OC)c(OC)c1 [4-allyl-1,2-dimethoxy benzene] | 45.6 ± 30 | 39.8 ± 29 | 37.5 ± 29 | 17.2 ± 21 | 54.4 ± 25 | 55.3 ± 24 | – | – | – | – | – | –
COc1cc(C(=O)O)ccc1O [4-hydroxy-3-methoxybenzoic acid] | 45.4 ± 24 | – | 28.8 ± 29 | – | 44.1 ± 23 | – | – | – | – | 51.9 ± 29 | 65.3 ± 26 | 54.7 ± 28
CCCc1ccc(O)cc1 [4-propylphenol] | 39 ± 33 | 43.6 ± 27 | 67.3 ± 24 | 38.2 ± 30 | 36.7 ± 24 | 47.7 ± 21 | – | – | – | – | – | –
c1cnc2c(n1)CCCC2 [5,6,7,8-Tetrahydroquinoxaline] | – | 65.5 ± 28 | – | 68.2 ± 24 | – | 55.6 ± 25 | 44.4 ± 26 | 40.3 ± 31 | 42.9 ± 27 | – | – | –
CCC1OC(=O)C(O)=C1C (stereo not given) [5-Ethyl-3-hydroxy-4-methyl-2(5H)-furanone (replicate)] | – | 54.2 ± 32 | – | 44.9 ± 30 | – | 65.2 ± 22 | 64.6 ± 32 | 58.9 ± 32 | 67.5 ± 26 | – | – | –
CCC1OC(=O)C(O)=C1C (stereo not given) [5-Ethyl-3-hydroxy-4-methyl-2(5H)-furanone] | – | 44.9 ± 29 | – | 36.6 ± 31 | – | 54.4 ± 22 | 59.7 ± 34 | 48.1 ± 32 | 64 ± 22 | – | – | –
C=CCCCCO [5-Hexen-1-ol] | 43.7 ± 33 | 42.6 ± 30 | 62.2 ± 32 | 26 ± 25 | 48 ± 28 | 49.2 ± 23 | – | – | – | – | – | –
C/C=C/C(=O)[C@H](C)CC [5-Methyl-2-hepten-4-one] | – | 45.1 ± 31 | – | 69.2 ± 27 | – | 45.3 ± 28 | 40.8 ± 31 | 26 ± 28 | 64.7 ± 25 | – | – | –
Cc1ccc(C=O)o1 [5-Methylfurfural] | 52.6 ± 31 | 36 ± 29 | 59 ± 31 | 17.9 ± 24 | 59.3 ± 24 | 45.8 ± 23 | – | – | – | – | – | –
Cc1cccc2nccnc12 [5-Methylquinoxaline] | – | 51.8 ± 31 | – | 49 ± 31 | – | 45.7 ± 27 | 23.7 ± 32 | 19.4 ± 29 | 48.6 ± 30 | – | – | –

Source: the supplement of paper PMC4977894
